{"source": "patent US4465673A", "about": "“Pentagalloylglucose antiviral composition” (Tanaka; Yasuo, priority 1983, dated 1984)", "key": {"herpes simplex virus": {"system": "herpes simplex virus", "experiment": "Antiviral activity against herpes simplex virus in FL cells (multinucleated giant cell formation)", "format": "cell-based", "conditions": "FL cell monolayers, sample added 1 h after virus, 36° C., 5% carbon dioxide, 24 hours incubation", "description": "Antiviral activity of 1,2,3,4,6-pentagalloylglucose against herpes simplex virus was assayed. Procedure:\nMonolayers were prepared from dispersed FL cells in Petri dishes of diameter 35 mm, 24 hours prior to the assay. On carrying out the assay, the medium in each dish was poured off and each dish received 1 ml of medium containing herpes simplex virus. The dishes were incubated at 36° C. in a humidified atmosphere containing 5% of gaseous carbon dioxide. After an hour, each dish further received 1 ml of medium and 20-200 μl of an aqueous 1,2,3,4,6-pentagalloylglucose solution. Incubation was continued for 24 hours and then all the dishes were inspected for multinucleated giant cell. Antiviral activity was defined as the minimum concentration of sample at which no multinucleated giant cell appeared."}, "Acute toxicity in rats": {"experiment": "Acute toxicity in rats", "format": "in vivo", "conditions": "in a usual manner", "description": "Acute toxicity of 1,2,3,4 6-pentagalloylglucose was assayed using rats in a usual manner."}}}
{"molecule": "1,2,3,4,6-pentagalloylglucose [Product of Example 1]", "values": [{"measurement": "Antiviral activity (minimum concentration of sample at which no multinucleated giant cell appeared)", "setting": "herpes simplex virus", "result": 26, "unit": "µg/mL"}]}
{"molecule": "O=C(OCC1OC(OC(=O)c2cc(O)c(O)c(O)c2)C(OC(=O)c2cc(O)c(O)c(O)c2)C(OC(=O)c2cc(O)c(O)c(O)c2)C1OC(=O)c1cc(O)c(O)c(O)c1)c1cc(O)c(O)c(O)c1", "note": "(stereo not drawn) [1,2,3,4,6-pentagalloylglucose]", "values": [{"measurement": "minimal effective concentration", "setting": "herpes simplex virus; read-out: Antiviral activity (minimum concentration of sample at which no multinucleated giant cell appeared)", "result": 25, "unit": "µg/mL"}, {"measurement": "Acute toxicity", "setting": "Acute toxicity in rats", "result": "extremely low"}]}
